According to the NIST ThermoML archive (doi:10.1021/je800110r):

Settings: 303.15 K, Liquid, Vibrating tube method

CCCCCCCCCC [decane]
Settings	mass density [kg/m3]
24341 kPa	740.5
24369 kPa	740.3
24389 kPa	740.3
24417 kPa	740.4
24444 kPa	740.4
24484 kPa	740.5
24509 kPa	740.4
24577 kPa	740.5
24654 kPa	740.6
24804 kPa	740.6
24833 kPa	740.7
24870 kPa	740.7
24908 kPa	740.7
24929 kPa	740.7
24962 kPa	740.7
24995 kPa	740.8
25025 kPa	740.7
25050 kPa	740.7
25648 kPa	741.1
25678 kPa	741.3
25713 kPa	741.2
25744 kPa	741.3
25771 kPa	741.3
25839 kPa	741.3
25875 kPa	741.2
25902 kPa	741.4
25935 kPa	741.4
25959 kPa	741.5
26009 kPa	741.4
26041 kPa	741.5
26073 kPa	741.5
26100 kPa	741.5
26137 kPa	741.5
26164 kPa	741.5
26206 kPa	741.5
26242 kPa	741.5
26270 kPa	741.6
26309 kPa	741.6
26334 kPa	741.6
26357 kPa	741.7
26400 kPa	741.7
26433 kPa	741.8
26465 kPa	741.7
26494 kPa	741.7
26532 kPa	741.8
26574 kPa	741.8
26607 kPa	741.9
26640 kPa	741.8
26684 kPa	741.9
26718 kPa	741.8
26752 kPa	741.9
26781 kPa	741.9
26820 kPa	741.9
26844 kPa	741.9
26884 kPa	741.9
26923 kPa	742
26947 kPa	742
26982 kPa	742.1
27007 kPa	742
27037 kPa	742.2
27071 kPa	742.1
27116 kPa	742.2
27156 kPa	742.2
27186 kPa	742.1
27226 kPa	742.2
27262 kPa	742.2
27298 kPa	742.3
27333 kPa	742.3
27375 kPa	742.4
27400 kPa	742.4
27431 kPa	742.3
27462 kPa	742.4
27503 kPa	742.3
27535 kPa	742.4
27585 kPa	742.4
27622 kPa	742.4
27666 kPa	742.4
27697 kPa	742.5
27724 kPa	742.6
27748 kPa	742.5
27771 kPa	742.6
27803 kPa	742.5
27827 kPa	742.7
27859 kPa	742.6
27890 kPa	742.6
27923 kPa	742.8
27952 kPa	742.6
27975 kPa	742.7
27999 kPa	742.8
28032 kPa	742.7
28057 kPa	742.8
28085 kPa	742.7
28118 kPa	742.9
28151 kPa	742.8
28180 kPa	742.9
28205 kPa	742.8
28234 kPa	742.9
28258 kPa	742.9
28289 kPa	742.9
28314 kPa	742.9
28343 kPa	743
28369 kPa	743
28399 kPa	743.1
28443 kPa	743
28470 kPa	743.1
28511 kPa	743.2
28542 kPa	743.1
28562 kPa	743.1
28584 kPa	743.2
28605 kPa	743.1
28622 kPa	743.2
28643 kPa	743.1
28666 kPa	743.1
28685 kPa	743.3
28705 kPa	743.2
28725 kPa	743.2
28754 kPa	743.3
28771 kPa	743.3
28791 kPa	743.3
28809 kPa	743.2
28826 kPa	743.2
28844 kPa	743.4
28865 kPa	743.2
28885 kPa	743.3
28902 kPa	743.2
28928 kPa	743.4
28945 kPa	743.3
28966 kPa	743.4
28986 kPa	743.4
29000 kPa	743.5
29018 kPa	743.4
29042 kPa	743.4
29062 kPa	743.4
29083 kPa	743.4
29107 kPa	743.4
29131 kPa	743.5
29154 kPa	743.4
